Each structure is given as a SMILES string. pIC50: −log10 of the molar value. Activity calls are given as the source filed them. No cut-off for these calls is given here.

For the first test, the target named is T1, Serine/threonine-protein kinase Chk1 (Homo sapiens, UniProt O14757).
T1 sequence (O14757 whole entry): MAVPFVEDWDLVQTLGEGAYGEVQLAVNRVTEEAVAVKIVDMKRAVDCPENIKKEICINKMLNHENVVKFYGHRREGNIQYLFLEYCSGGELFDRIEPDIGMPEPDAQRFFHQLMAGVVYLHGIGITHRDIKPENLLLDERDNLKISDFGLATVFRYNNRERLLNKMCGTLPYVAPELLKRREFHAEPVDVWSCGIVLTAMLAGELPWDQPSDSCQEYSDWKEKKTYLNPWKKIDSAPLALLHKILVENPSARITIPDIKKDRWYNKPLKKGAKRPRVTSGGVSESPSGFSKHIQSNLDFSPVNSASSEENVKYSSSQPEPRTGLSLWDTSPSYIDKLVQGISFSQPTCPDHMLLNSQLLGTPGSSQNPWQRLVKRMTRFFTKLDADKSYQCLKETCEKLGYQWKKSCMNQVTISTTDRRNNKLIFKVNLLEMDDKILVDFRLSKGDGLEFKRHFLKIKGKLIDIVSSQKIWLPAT
The test is described as follows: Competitive inhibition of Chk1 in presence of higher ATP levels.
By pIC50 is commonly meant −log10 of the IC50, conventionally taken in molar units. As to `c1cc(N2CCOCC2)cc(Nc2ncc(-c3cncc(-c4cn[nH]c4)c3)s2)n1`, the pIC50 is 7.46.

On to `OCCNc1ccnc(Nc2ncc(-c3cncnc3)s2)c1`, for which the negative-log IC50 (pIC50) was 7.05.

With `NCCNC(=O)c1cncc(-c2cnc(Nc3cc(N4CCC(F)(F)CC4)ccn3)s2)c1`, the pIC50 is 10.30.

In the case of `c1ncc(-c2cncc(-c3cnc(Nc4cc(N5CCOCC5)ccn4)s3)c2)cn1`, the negative logarithm of the IC50 (pIC50) was 7.43.

Regarding `CC(=O)N1CCN(c2ccnc(Nc3ncc(-c4cncc(C(=O)NCCN)c4)s3)c2)CC1`, the pIC50 was 10.52.

In the case of `Brc1cccc(-c2cnc(Nc3cc(N4CCNCC4)ccn3)s2)c1`, the pIC50 is < 5.98.

On to `NCCNC(=O)c1cncc(-c2cnc(Nc3cc(N4CCNCC4)ccn3)s2)c1`, for which the pIC50 was 10.30.

Consider `NCCNC(=O)c1cncc(-c2cnc(Nc3cc(CN4CCOCC4)ccn3)s2)c1`, for which the pIC50 is 9.40.

For `Cc1ncc(-c2cnc(Nc3cc(N4CCNCC4)ccn3)s2)cn1`, the pIC50 was 7.54.

Turning to `CC(=O)N1CCN(c2ccnc(Nc3ncc(-c4ccc(C)nc4)s3)c2)CC1`, the pIC50 is 6.69.

For `CS(=O)(=O)N1CCN(c2ccnc(Nc3ncc(-c4cncnc4)s3)c2)CC1`, the pIC50 was 7.33.

Regarding `COc1ncc(-c2cncc(-c3cnc(Nc4cc(N5CCOCC5)ccn4)s3)c2)cn1`, the pIC50 is 7.22.

`OCC1CN(c2ccnc(Nc3ncc(-c4cccnc4)s3)c2)CCO1` (stereo not drawn): the negative-log IC50 (pIC50) is 7.31.

As for `COc1ncccc1-c1cncc(-c2cnc(Nc3cc(N4CCOCC4)ccn3)s2)c1`, the pIC50 was 6.46.

Take `NCCCNC(=O)c1cncc(-c2cnc(Nc3cc(N4CCOCC4)ccn3)s2)c1`: the pIC50 is 8.85.

For the compound `N#Cc1cncc(-c2cnc(Nc3cc(N4CCNCC4)ccn3)s2)c1`, the pIC50 was 7.46.

For `Cc1ncc(-c2cnc(Nc3cccc(N4CCNCC4)n3)s2)cn1`, the pIC50 was 6.92.

Take `OCC#Cc1cncc(-c2cnc(Nc3cc(N4CCOCC4)ccn3)s2)c1`: the pIC50 is 8.22.

Turning to `Cc1ccc(-c2cnc(Nc3cc(N4CCN(S(C)(=O)=O)CC4)ccn3)s2)cn1`, the negative logarithm of the IC50 (pIC50) was 6.95.

As to `c1cc(N2CCNCC2)cc(Nc2ncc(-c3cncc(-c4cn[nH]c4)c3)s2)n1`, the negative logarithm of the IC50 (pIC50) was 8.10.

On to `NC/C=C/c1cncc(-c2cnc(Nc3cc(N4CCOCC4)ccn3)s2)c1`, for which the pIC50 is 6.49.

With `N#Cc1cncc(-c2cnc(Nc3cc(N4CCOCC4)ccn3)s2)c1`, the pIC50 is 6.36.

As to `c1ccc(-c2cnc(Nc3cc(N4CCNCC4)ccn3)s2)cc1`, the pIC50 is 6.28.

With `CS(=O)(=O)N1CCN(c2ccnc(Nc3ncc(-c4cncc(C(=O)NCCN)c4)s3)c2)CC1`, the pIC50 was 10.52.

Take `NCCC(=O)c1cncc(-c2cnc(Nc3cc(N4CCOCC4)ccn3)s2)c1`: the pIC50 was 9.57.

As for `Cc1ncc(-c2cnc(Nc3cccc(NCCCN)n3)s2)cn1`, the pIC50 was 7.54.

For the compound `Cc1ncc(-c2cnc(Nc3cc(N4CCOCC4)ccn3)s2)cn1`, the pIC50 is 7.22.

On to `NCCCc1cncc(-c2cnc(Nc3cc(N4CCOCC4)ccn3)s2)c1`, for which the pIC50 was 7.92.

As for `c1cncc(-c2cncc(-c3cnc(Nc4cc(N5CCOCC5)ccn4)s3)c2)c1`, the pIC50 was 7.72.

Turning to `Cc1ccc(-c2cnc(Nc3cc(N4CCNCC4)ccn3)s2)cn1`, the negative logarithm of the IC50 (pIC50) was 7.43.

With `CNCCNC(=O)c1cncc(-c2cnc(Nc3cc(N4CCOCC4)ccn3)s2)c1`, the pIC50 is 9.00.

For another test, the target named is T2, Serine/threonine-protein kinase Chk1 (Homo sapiens) (UniProt O14757).
T2 sequence (whole entry): T1 sequence (O14757 whole entry)
The test is described as follows: Inhibition of immobilized Chk1 at 11 nM incubated for 30 mins followed by 24 hrs washout by HTRF assay. For orientation: In TR-FRET formats the signal depends on donor and acceptor labels being close together.
As for `NCCNC(=O)c1cncc(-c2cnc(Nc3cc(N4CCC(F)(F)CC4)ccn3)s2)c1`, the inhibition entry is “Active”.

A further test concerns the target T2, Serine/threonine-protein kinase Chk1 (Homo sapiens). As to the kind of experiment: Competitive inhibition of immobilized Chk1 at 11 nM incubated for 30 mins followed by 24 hrs washout by HTRF assay in presence of 100 uM ATP.
For the compound `NCCNC(=O)c1cncc(-c2cnc(Nc3cc(N4CCC(F)(F)CC4)ccn3)s2)c1`, the inhibition result was “Active”.

Source of the values: ChEMBL document CHEMBL2010744, “Pyridyl aminothiazoles as potent inhibitors of Chk1 with slow dissociation rates” (Bioorg Med Chem Lett, 2012).
